Data from patent publication US20240294488A1, “ISOTOPOLOGES, SALTS, CRYSTALLINE FORMS, STEREOISOMERS, OF METHYLONE AND ETHYLONE AND METHODS OF USE THEREOF” (Terran Biosciences Inc., priority 2021, published 2024).
Where a name gives a salt, the structure may show the parent alone.

What was measured:
[1] = tested on: participants diagnosed with at least moderate post-traumatic stress disorder (PTSD); assay: Double-blind, randomized, placebo-controlled clinical trial of methylone-assisted psychotherapy in PTSD; assay type: in vivo, human; conditions: for CAPS-5 assessments: Intervening Session 1C, 2C, 3C and Study Conclusion; for daytime sleepiness as measured by ESS / change in CAPS-5 assessment / clinician-rated functional impairment score as measured by SDS / depression as measured by HAM-D: at Study Conclusion; for change in CAPS-5 assessment: vs placebo group, with psychotherapy
Protocol: A multicenter, randomized, double-blind, placebo-controlled trial is conducted to assess the efficacy and safety of methylone-assisted psychotherapy versus psychotherapy with placebo control in participants diagnosed with at least moderate post-traumatic stress disorder (PTSD).
This multicenter, randomized, double-blind, placebo-controlled trial is conducted at various sites in the United States with IRB approval from each study site. A flexible dose of methylone hydrochloride salt or placebo, followed by a supplemental half-dose unless contraindicated by patient's previous response or medical history, is also administered during the Treatment Period with psychotherapy in at least 3 blinded monthly Experimental Sessions. The Supplemental Dose extends the duration of drug effects on the participants during an Experimental Session. Methylone test groups are further subdivided into specific groups receiving only racemic methylone hydrochloride salt, S-methylone hydrochloride salt, or R-methylone hydrochloride salt. An optional Risk Evaluation and Mitigation Strategy (REMS) Protocol may be implemented for the racemic methylone, S-methylone, and placebo-groups. The Treatment Period lasts for approximately 12 weeks. During the Treatment Period, each Experimental Session is followed by three Intervening Sessions of non-drug psychotherapy. Each Experimental Session involves an overnight stay. The Primary Outcome measure, the change in Clinician Administered PTSD Scale for DSM-5 (CAPS-5), is determined by a blinded Independent Rater (IR) pool multiple times throughout the study. The study consists of separate periods for each participant. Initially, prospective participants undergo a Screening Period involving an initial eligibility assessment, a medical history intake, informed consent, and enrollment of eligible participants. Next, a Preparation Period is undertaken for enrolled participants involving medication tapering and clinical baseline assessments to confirm each participant meets enrollment criteria. As part of the Preparation Period, a detailed assessment of co-morbidities to PTSD is recorded. Participants may remain on prescribed courses of selective serotonin reuptake inhibitor (SSRI) or serotonin and norepinephrine reuptake inhibitor (SNRI) treatment. Dosages and/or frequency of administration of a prescribed SSRI or SNRI may be adjusted to fit within study parameters. Participants may be required to taper a prescribed course of medication in order to maintain eligibility within the study. The Treatment Period consists of three monthly Experimental Sessions and associated Intervening Sessions of integrative behavioral psychotherapy. The Treatment Period lasts approximately 12 weeks. Following the Treatment Period is a Follow-up Period and Study Conclusion. During the Follow-up Period and Study Conclusion, participants complete 4 weeks with no study visits, followed by a Study Conclusion visit.
This study compares the effects of three blinded Experimental Sessions of psychotherapy in combination with flexible doses of methylone or placebo administered as described below. Non-drug preparatory and intervening psychotherapy sessions are also included. Patient's weight is determined for dosage calculation. Initial dose is 100 mg unless this will result in a dosage of less than 1.5 mg/kg of patient weight. Initial dose thereby adjusted upward in 25 mg increments to deliver the lowest dose possible of at least 1.5 mg/kg of patient weight. Initial dose for Experimental Session 2 and 3 is cumulative dose calculated by adding the initial dose plus REMS protocol dose used the previous Experimental Session for each patient.
Randomization occurs prior to the initiation of Experimental Session 1. Each participant is provided the next randomized number in a sequence by a blinded study monitor. […]

[2] = Plasma and brain concentration at end of zero maze study; assay type: in vivo, rat; conditions: end of zero maze study, 5, 15, 30 mg/kg ip, FIG. 68 and FIG. 69
Protocol: Terminal sampling. At the end of the study, terminal blood was collected from 2 of the vehicle treated rats (>5 mL) and from all methylone HCl treated rats (500 uL) by CP under CO2. Blood samples were placed into Eppendorf tubes on ice containing 22 μL/mL blood (vehicle treated) or 11 μL EDTA (93 mg/mL) (Methylone HCl treated rats) and gently mixed. After no longer than 30 min, blood samples were centrifuged at 10,000 rpm×3 min and plasma samples (>2 mL (vehicle) or 2×100 μL (Methylone HCl treated) placed into Eppendorf tubes (Vehicle) or 96 well plates on dry ice. Immediately after blood sampling, brains were excised, rinsed in saline, blotted, weighed and snap-frozen in liquid N2. All samples were stored at −20° C. until dispatched on dry ice for analysis.
Terminal sampling. At the end of the study, terminal blood was collected from 2 of the vehicle treated rats (>5 mL) and from all S-methylone HCl treated rats (500 uL) by CP under CO2. Blood samples were placed into Eppendorf tubes on ice containing 22 μL/mL blood (vehicle treated) or 11 μL EDTA (93 mg/mL) (S-methylone HCl treated rats) and gently mixed. […]

Compound | CAPS-5 assessments ([1]; vs placebo-treated controls) | daytime sleepiness as measured by ESS [1] | change in CAPS-5 assessment [1] | clinician-rated functional impairment score as measured by SDS ([1]; vs placebo-treated controls) | depression as measured by HAM-D ([1]; vs placebo-treated controls) | concentration in plasma and brain [2] | adverse anxiogenic incidents ([1]; PTSD participants, vs placebo-treated controls) | total dosage of drug needed for significant mean reduction in CAPS-5, compared to racemic methylone-treated subgroup ([1]; PTSD participants)
CNC(C)C(=O)c1ccc2c(c1)OCO2 (racemic) [(rac)-Methylone Hydrochloride, 3,4-methylenedioxy-N-methylcathinone hydrochloride] | Significant improvements in CAPS-5 assessments | a significant improvement in lessening daytime sleepiness | a significant mean reduction in CAPS-5 assessment | a significant improvement in clinician-rated functional impairment score | a significant improvement depression | increased in both brain and plasma at the higher doses |  | 
CN[C@H](C)C(=O)c1ccc2c(c1)OCO2 [(R)-Methylone Hydrochloride, (R)-1-(Benzo[d][1,3]dioxol-5-yl)-2-(methylamino)propan-1-one Hydrochloride] | Significant improvements in CAPS-5 assessments | a significant improvement in lessening daytime sleepiness | a significant mean reduction in CAPS-5 assessment | a significant improvement in clinician-rated functional impairment score | a significant improvement depression |  | without a significant increase in adverse anxiogenic incidents | 
CN[C@@H](C)C(=O)c1ccc2c(c1)OCO2 [(S)-Methylone Hydrochloride, (S)-1-(Benzo[d][1,3]dioxol-5-yl)-2-(methylamino)propan-1-one Hydrochloride] | Significant improvements in CAPS-5 assessments | a significant improvement in lessening daytime sleepiness | a significant mean reduction in CAPS-5 assessment | a significant improvement in clinician-rated functional impairment score | a significant improvement depression |  |  | lower total dosage of drug
